According to patent US11827628B2, “Compositions and methods for inhibition of the JAK pathway” (Rigel Pharmaceuticals, Inc., priority 2005, dated 2023):
Structures can show the parent of a compound that is named as a salt. Where two headings read alike, the source gives them in different places. Values belong to the molecule of their own block, whether it stands above or below them.

Experiments:
Primary human T-cells = experiment: Primary Human T-Cell Proliferation Assay Stimulated with IL-2 (CellTiter-Glo); type: cell-based; details: read-out: IC50, Example 42
Outline: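 IC50 derived from CellTiter-Glo ATP signal after 72 hours of IL-2-driven proliferation at 37° C. Cells: primary human T-cells from blood, stimulated beforehand 3-4 days on anti-CD3/anti-CD28 with IL-2, then rested from IL-2 before compound exposure in duplicate; IL-2-free wells served as unstimulated control.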

[1] = test system: IL-4 stimulated expression of CD23 in human Ramos B cells (JAK-1 and JAK-3); experiment: Assay for Ramos B-Cell Line Stimulated with IL-4 (CD23 upregulation, FACS); type: cell-based; details: read-out: IC50, Example 41
Outline: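 Human Ramos B cells in RPMI with 5% serum were pre-incubated with compound or DMSO for 1 h at 37 °C, then stimulated with IL-4 at a final 50 units/mL for 20-24 h. CD23 upregulation was measured by anti-CD23-PE staining and flow cytometry, and IC50 values were calculated.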

[2] = Homo sapiens, T-cell, primary human T-cells stimulated with IL-2, proliferation
[3] = Homo sapiens, Ramos, Ramos B cells stimulated with IL-4, CD23 expression by FACS
[4] = primary human T-cell proliferation stimulated with IL-2
[5] = Ramos B-cell line stimulated with IL-4, CD23 expression by FACS
[6] = primary human T-cells stimulated with IL-2, proliferation
[7] = Ramos B cells stimulated with IL-4, CD23 expression by FACS
[8] = Homo sapiens, T-cell, primary human T-cell proliferation stimulated with IL-2
[9] = Homo sapiens, Ramos, Ramos B-cell line stimulated with IL-4, CD23 expression by FACS

Molecule: N#CCOc1cccc(Nc2nc(Nc3ccc(S(N)(=O)=O)cc3)ncc2F)c1 [Compound I-3, N2-(4-Aminosulfonyl)phenyl-N4-(3-cyanomethoxy)phenyl-5-fluoro-2,4-pyrimidinediamine]
- IC50 (Primary human T-cells; [4]): 987 nM
- IC50 [1, 5]: 107 nM

Molecule: CNC(=O)COc1ccc(Nc2nc(Nc3ccc(C)c(S(N)(=O)=O)c3)ncc2F)cc1 [Compound I-145, N2-(3-Aminosulfonyl-4-methylphenyl)-5-fluoro-N4-(4-methylaminocarbonylmethoxyphenyl)-2,4-pyrimidinediamine]
- IC50 (Primary human T-cells; [8]): 349 nM
- IC50 [1, 9]: 542 nM

Molecule: Cc1ccc(Nc2ncc(F)c(Nc3ccc(-c4ccccn4)c(OCCl)c3)n2)cc1S(N)(=O)=O [Compound I-174, N2-(3-Aminosulfonyl-4-methylphenyl)-5-fluoro-N4-[4-(2-pyridinyl)-3-chloromethyleneoxyphenyl]-2,4-pyrimidinediamine]
- IC50 (Primary human T-cells; [4]): 1230 nM
- IC50 [1, 5]: 117 nM

Molecule: CNC(=O)COc1ccc(Nc2nc(Nc3ccc(Cl)c(S(N)(=O)=O)c3)ncc2C)cc1Cl [Compound I-153, N2-(3-Aminosulfonyl-4-chlorophenyl)-N4-(3-chloro-4-methylaminocarbonylmethoxyphenyl)-5-methyl-2,4-pyrimidinediamine]
- IC50 (Primary human T-cells; [8]): 334 nM
- IC50 [1, 9]: 114 nM

Molecule: Cc1nccn1Cc1ccc(Nc2nc(Nc3cccc(S(N)(=O)=O)c3)ncc2F)cc1 [III-94, N2-(3-Aminosulfonylphenyl)-5-fluoro-N4-[4-(2-methyl-1-imidazolylmethyl)phenyl]-2,4-pyrimidinediamine]
- IC50 (Primary human T-cells; [6]): 716 nM
- IC50 [1, 7]: 162 nM

Molecule: CNC(=O)COc1ccc(Nc2nc(Nc3ccc(S(N)(=O)=O)cc3)ncc2C)cc1F [Compound I-154, N2-(4-Aminosulfonylphenyl)-N4-(3-fluoro-4-methylaminocarbonylmethoxyphenyl)-5-methyl-2,4-pyrimidinediamine]
- IC50 (Primary human T-cells; [8]): 992 nM
- IC50 [1, 9]: 276 nM

Molecule: Cc1cc(Nc2nc(Nc3ccc(C)c(S(N)(=O)=O)c3)ncc2F)ccc1NC(=O)CC#N [Compound I-81, N2-(3-Aminosulfonyl-4-methylphenyl)-5-fluoroN4-[3-methyl4-(N-cyanoacetyl)aminophneyl]-2,4-pyrimidinediamine]
- IC50 (Primary human T-cells; [4]): 957 nM
- IC50 [1, 5]: 360 nM

Molecule: CC1(C)Oc2cc(Nc3nc(Nc4ccc(Cl)c(S(N)(=O)=O)c4)ncc3F)cnc2N(CC#N)C1=O [Compound V-15, N2-(3-Aminosulfonyl-4-chlorophenyl)-N4-[2,2-dimethyl-3-oxo-4-cyanomethyl-5-pyrid[1,4]oxazin-7-yl]-5-fluoro-2,4-pyrimidinediamine]
- IC50 (Primary human T-cells; [6]): 9310 nM
- IC50 [1, 7]: 173 nM

Molecule: N2-(3-Aminosulfonylphenyl)-N4-(4-chloro-3-trifluoromethylphenyl)-5-fluoro-2,4-pyrimidinediamine [VI-38]
- IC50 (Primary human T-cells; [6]): 2070 nM
- IC50 [1, 7]: 414 nM

Molecule: CNC(=O)COc1ccc(Nc2nc(Nc3cccc(S(N)(=O)=O)c3)ncc2F)cc1Cl [Compound I-147, N2-(3-Aminosulfonylphenyl)-N4-(3-chloro-4-methylaminocarbonylmethoxyphenyl)-5-fluoro-2,4-pyrimidinediamine]
- IC50 (Primary human T-cells; [8]): 174 nM
- IC50 [1, 9]: 79.9 nM

Molecule: Cc1cc(Nc2nc(Nc3ccc(S(C)(=O)=O)c(N)c3)ncc2F)ccc1OCc1ccccn1 [Compound I-168, N2-(3-Amino-4-methylsulfonylphenyl)-5-fluoro-N4-[(4-((pyridin-2-yl)methoxy)-3-methylphenyl)]-2,4-pyrimidinediamine]
- IC50 (Primary human T-cells; [8]): 1180 nM
- IC50 [1, 9]: 154 nM

Molecule: CNC(=O)COc1ccc(Nc2nc(Nc3ccc(Cl)c(S(N)(=O)=O)c3)ncc2F)cc1Cl [Compound I-152, N2-(3-Aminosulfonyl-4-chlorophenyl)-N4-(3-chloro-4-methylaminocarbonylmethoxyphenyl)-5-fluoro-2,4-pyrimidinediamine]
- IC50 (Primary human T-cells; [8]): 1540 nM
- IC50 [1, 9]: 302 nM

Molecule: CN1CCN(S(=O)(=O)c2ccc(Nc3ncc(F)c(Nc4ccc(OCC#N)cc4)n3)cc2)CC1 [Compound I-18, N4-(4-Cyanomethoxy)phenyl-5-fluoro-N2-[4-(4-methylpiperazin-1-yl)sulfonyl]phenyl-2,4-pyrimidinediamine]
- IC50 (Primary human T-cells; [4]): 1490 nM
- IC50 [1, 5]: 283 nM

Now from value to molecule, other results behind:

- IC50 [1, 3]: 77.5 nM
Molecule: COc1c(C)cc(Nc2ncc(F)c(N[C@H]3[C@@H](C(N)=O)[C@@H]4C=C[C@H]3C4)n2)cc1S(N)(=O)=O [VII-83, (1R,2R,3S,4S)N2-(3-Aminosulfonyl-4-methoxy-5-methylphenyl)-N4-(3-aminocarbonylbicyclo[2.2.1]hept-5-ene-2-yl)-5-fluoro-2,4-pyrimidinediamine]
- IC50 (Primary human T-cells; [2]): 937 nM

- IC50 [1, 3]: 429 nM
Molecule: NS(=O)(=O)c1cc(Nc2ncc(F)c(Nc3ccc(C(F)(F)F)c(Cl)c3)n2)ccc1Cl [VI-44, N2-(3-Aminosulfonyl-4-chlorophenyl)-N4-(3-chloro-4-trifluoromethyl-phenyl)-5-fluoro-2,4-pyrimidinediamine]
- IC50 (Primary human T-cells; [2]): 7310 nM

- IC50 [1, 7]: 117 nM
Molecule: CNS(=O)(=O)c1cc(Nc2ncc(F)c(Nc3ccc(Cn4ccnn4)cc3)n2)ccc1C [III-98, 5-Fluoro-N2-[3-(N-methylaminosulfony)-4-methylphenyl]-N4-{4-[1-(1,2,3-thazolyl)methyl]phenyl}-2,4-pyrimidinediamine]
- IC50 (Primary human T-cells; [6]): 457 nM

- IC50 [1, 3]: 28.9 nM
Molecule: Cc1ccc(Nc2ncc(C)c(Nc3ccc4c(c3)N(C)C(=O)CS4)n2)cc1S(N)(=O)=O [VII-33, N2-(3-Aminosulphonyl-4-methylphenyl)-5-methyl-N4-(4-methyl-3-oxo-benzo[1,4]thiazin-6-yl)-2,4-pyrimidinediamine]
- IC50 (Primary human T-cells; [2]): 18.4 nM

- IC50 [1, 3]: 73.9 nM
Molecule: COC(=O)c1ccc(Nc2nc(Nc3ccc(C)c(S(N)(=O)=O)c3)ncc2F)s1 [IX-46, N2-(3-Aminosulfonyl-4-methylphenyl)-5-fluoro-N4-(5-methoxycarbonyl-thiophene-2-yl)-2,4-pyrimidinediamine]
- IC50 (Primary human T-cells; [2]): 1390 nM

- IC50 [1, 3]: 369 nM
Molecule: NS(=O)(=O)c1cccc(Nc2ncc(F)c(Nc3cnc4ccccc4c3)n2)c1 [VII-66, N2-(3-Aminosulfonylphenyl)-5-fluoro-N4-(quinolin-3-yl)-2,4-pyrimidinediamine]
- IC50 (Primary human T-cells; [2]): 2870 nM

- IC50 [1, 3]: 21.1 nM
Molecule: COc1ccc(Nc2nc(Nc3ccc(C)c(S(N)(=O)=O)c3)ncc2F)cc1Cl [VI-4, N2-(3-Aminosulfonyl-4-methylphenyl)-N4-(3-chloro-4-methoxyphenyl)-5-fluoro-2,4-pyrimidinediamine]
- IC50 (Primary human T-cells; [2]): 231 nM

- IC50 [1, 3]: 904 nM
Molecule: C#CCNS(=O)(=O)c1ccc(Nc2nc(Nc3cccc(S(N)(=O)=O)c3)ncc2F)cc1 [VI-75, N2-(3-Aminosulfonylphenyl)-5-fluoro-N4-[4-(prop-2-ynylaminosulfonyl)phenyl]-2,4-pyrimidinediamine]
- IC50 (Primary human T-cells; [2]): 929 nM

- IC50 ([1]; Ramos B-cell line stimulated with IL-4, CD23 expression by FACS, Hydrochloride Salt): 131 nM
Molecule: NS(=O)(=O)c1cccc(Nc2ncc(F)c(Nc3ccc(Cc4ccncc4)cc3)n2)c1 [III-73, N2-(3-Aminosulfonylphenyl)-5-fluoro-N4-[4-(4-pyridylmethyl)phenyl]-2,4-pyrimidinediamine Hydrochloride Salt]
- IC50 (Primary human T-cells; primary human T-cell proliferation stimulated with IL-2, Hydrochloride Salt): 434 nM

- IC50 [1, 5]: 272 nM
Molecule: COc1cc(Nc2nc(Nc3ccc(C)c(S(N)(=O)=O)c3)ncc2F)ccc1CCC#N [III-25, N2-(3-Aminosulfonyl-4-methylphenyl)-N4-(4-cyanoethylene-3-methoxyphenyl)-5-fluoro-2,4-pyrimidinediamine]
- IC50 (Primary human T-cells; [4]): 1260 nM

- IC50 [1, 9]: 172 nM
Molecule: NS(=O)(=O)c1cccc(Nc2ncc(F)c(Nc3ccc(Cc4ccccc4)cc3)n2)c1 [III-62, N2-(3-Aminosulfonylphenyl)-N4-(4-benzylphenyl)-5-fluoro-2,4-pyrimidinediamine]
- IC50 (Primary human T-cells; [8]): 699 nM

- IC50 [1, 7]: 286 nM
Molecule: CNC(=O)N1CCCc2cc(Nc3nc(Nc4cccc(S(N)(=O)=O)c4)ncc3F)ccc21 [VII-20, N2-(3-Aminosulfonylphenyl)-5-fluoro-N4-[1-(methylaminocarbonyl)-1,2,3,4-tetrahydroquin-6-yl]-2,4-pyrimidinediamine]
- IC50 (Primary human T-cells; [6]): 698 nM

- IC50 [1, 9]: 3160 nM
Molecule: NS(=O)(=O)c1cccc(Nc2ncc(F)c(Nc3ccc(Cc4cc[n+]([O-])cc4)cc3)n2)c1 [III-80, N2-(3-Aminosulfonylphenyl)-5-fluoro-N4-[4-(1-oxido-4-pyridylmethyl)phenyl]-2,4-pyrimidinediamine]
- IC50 (Primary human T-cells; [8]): 844 nM

- IC50 [1, 3]: 110 nM
Molecule: Cc1ccc(Nc2ncc(F)c(Nc3ccc(CCCCF)cc3)n2)cc1S(N)(=O)=O [VI-93, N2-(3-Aminosulfonyl-4-methylphenyl)-5-fluoro-N4-[4-(4-fluorobutyl)phenyl]-2,4-pyrimidinediamine]
- IC50 (Primary human T-cells; [2]): 560 nM

- IC50 [1, 3]: 1080 nM
Molecule: Cc1ccc(Nc2ncc(F)c(Nc3ccc(CCCCO)cc3)n2)cc1S(N)(=O)=O [VI-90, N2-(3-Aminosulfonyl-4-methylphenyl)-5-fluoro-N4-[4-(4-hydroxybutyl)phenyl]-2,4-pyrimidinediamine]
- IC50 (Primary human T-cells; [2]): 3970 nM

- IC50 [1, 3]: 206 nM
Molecule: NS(=O)(=O)c1cc(Nc2ncc(F)c(Nc3ccc(Cl)c(Cl)c3)n2)ccc1Cl [VI-3, N2-(3-Aminosulfonyl-4-chlorophenyl)-N4-(3,4-dichlorophenyl)-5-fluoro-2,4-pyrimidinediamine]
- IC50 (Primary human T-cells; [2]): 8790 nM
